The source of these data is patent US9751919B2, “Antimicrobial compositions comprising a hyaluronic acid binding peptide and a β-lactam antibiotic” (priority 2012, dated 2017).

The subject of one assay is CA-MRSA. The experiment in a line: MIC (CLSI broth dilution), agent alone. It counts as cell-based, Staphylococcus aureus. The settings on record: agent alone, in µg/mL. As for the experimental part:
(§1) VISA (strains 92, 95 and 96), VRSA (strains 105 and 106) and E. coli (strain 69717) isolates were also tested. One MSSA was used as a control. All MICs were assessed using CLSI guidelines. Also assessed was the activity of cefazolin, ceftriazone, meropenem, and a piperacillin/tazobactam combination antibiotic. Minimum inhibitory concentration (MIC) is the lowest concentration of an antimicrobial that will inhibit the visible growth of a microorganism after incubation.
(§2) Antimicrobial Susceptibility Testing: A custom designed panel of antimicrobials was created. […] These agents were obtained as laboratory grade powders from their respective manufacturers. Stock solutions were prepared and dilutions made as described by the Clinical Laboratory Standards Institute (2005 CLSI). Following two subcultures from frozen stock the MICs of the antimicrobial agents for the isolates were determined by the CLSI 2005 approved broth macrodilution method. Briefly, test tubes containing doubling antibiotic dilutions (2 ml per tube) of cation adjusted Mueller-Hinton broth (eg. for Enterobacteriaceae) with or without lysed horse blood (2-5% V/V) [eg. for S. pneumoniae] were inoculated to achieve a final concentration of approximately 5×10^5 CFU/ml and incubated in ambient air for 24 hours prior to reading. Colony counts were performed periodically to confirm inocula. Quality control was performed every two weeks using a variety of ATCC QC organisms including; S. aureus 29213, E. faecalis 29212, E. coli 25922 and P. aeruginosa 27853.
(§3) One MSSA was used as a control. All MICs were assessed using CLSI guidelines.
(§4) One MS SA and ATCC reference strains were used as controls. All MICs were assessed using CLSI guidelines.

The test system of another assay is HA-MRSA. The experiment in a line: MIC (CLSI broth dilution), agent alone. It counts as cell-based, Staphylococcus aureus. The settings on record: agent alone. The procedure: as §1, §2, §3, §4
A further assay relates to VISA. Put plainly: MIC (CLSI broth dilution), agent alone. The class given is cell-based, Staphylococcus aureus. Details: unit: µg/mL. The procedure:
as §1
(§5) Antimicrobial Susceptibility Testing: A custom designed panel of antimicrobials was created. The panel included: PEP35, penicillin, piperacillin/tazobactam, cefazolin, ceftriaxone, meropenem, clarithromycin, clindamycin, gentamicin, amikacin, vancomycin, ciprofloxacin, levofloxacin, moxifloxacin, linezolid, trimethoprim/sulfamethoxazole and doxycycline. These agents were obtained as laboratory grade powders from their respective manufacturers. Stock solutions were prepared and dilutions made as described by the Clinical Laboratory Standards Institute (2005 CLSI). Following two subcultures from frozen stock the MICs of the antimicrobial agents for the isolates were determined by the CLSI 2005 approved broth macrodilution method. Briefly, test tubes containing doubling antibiotic dilutions (2 ml per tube) of cation adjusted Mueller-Hinton broth (eg. for Enterobacteriaceae) with or without lysed horse blood (2-5% V/V) [eg. for S. pneumoniae] were inoculated to achieve a final concentration of approximately 5×10^5 CFU/ml and incubated in ambient air for 24 hours prior to reading. Colony counts were performed periodically to confirm inocula. Quality control was performed every two weeks using a variety of ATCC QC organisms including; S. aureus 29213, E. faecalis 29212, E. coli 25922 and P. aeruginosa 27853. For all antimicrobials as well as PEP35, CLSI criteria were used.
as §3

Another assay deals with VRSA. The experiment in a line: MIC (CLSI broth dilution), agent alone. It counts as cell-based, Staphylococcus aureus. Details: unit not given beside the values. The procedure: as §1, §5, §3
The subject of assay [1] is MRSA, VISA, VRSA and E. coli. Put plainly: MIC, agent alone, panel statement. It counts as cell-based. Particulars: versus MRSA, VISA, VRSA and E. coli. As for the experimental part: as §1, §5
For assay [2], the system named is E. coli. Put plainly: MIC (CLSI broth dilution), agent alone. It counts as cell-based, Escherichia coli. Particulars: E. coli 69716; agent alone. As for the experimental part:
as §1, §5, §4

Assay [3] has as its system MRSA, VISA, VRSA and E. coli. Put plainly: Checkerboard assay, panel statement. The class given is cell-based. The settings on record: with β-lactams versus MRSA, VISA, VRSA and E. coli. The procedure:
(§6) Checkerboard assays were carried out as described by Bonapace et al.
(§7) Diagnostic Microbiology and Infectious Diseases 2002; 44:363-366. In brief, checkerboard assays were performed in 96 well microtitre trays using an 8-by-8 well configuration. […] 96-well custom designed microtitre plates contained 100 ul/well of cation adjusted Mueller-Hinton broth (eg. for Enterobacteriaceae) with or without lysed horse blood (2-5% V/V) [eg. for S. pneumoniae] and were inoculated to achieve a final concentration of approximately 5×10^5 CFU/ml and incubated in ambient air for 24 hours prior to reading. Colony counts were performed periodically to confirm inocula. Quality control was performed every two weeks using a variety of ATCC QC organisms including; S. pneumoniae 49619, S. aureus 29213, E. faecalis 29212, E. coli 25922 and P. aeruginosa 27853. […] All peptides were assessed for synergy with β-lactams and vancomycin. For all antimicrobials as well as the peptides, CLSI criteria were used.
(§8) The fractional inhibitory concentration index (FIC index) was used to interpret synergy, antagonism or additivity/indifference. FIC index=FIC of drug A+FIC of drug B where:
(§9) The FIC of drug A and drug B was calculated as follows, FIC drug A=MIC of drug A in combination/MIC of drug A alone and FIC of drug B=MIC of drug B in combination/MIC of drug B alone. Synergy was defined as FIC index ≦0.5, additivity/indifference defined as a FIC between 0.5 and 4 and antagonism defined as an FIC index >4.
The fractional inhibitory concentration index (FIC index) was used to interpret synergy, antagonism or additivity/indifference. FIC index=FIC of drug A+FIC of drug B where the FIC of drug A and drug B was calculated as follows, FIC drug A=MIC of drug A in combination/MIC of drug A alone and FIC of drug B=MIC of drug B in combination/MIC of drug B alone. Synergy was defined as FIC index ≦0.5, additivity/indifference defined as an FIC of between 0.5 and 4 and antagonism defined as an FIC index >4.

The subject of another assay is E. cloacae. The experiment in a line: Checkerboard assay (FIC index). The settings on record: antibiotic combined with PEP35. It counts as cell-based, Enterobacter cloacae. The procedure: (§10) The checkerboard assays were carried out as described by Eliopoulos and Moellering (Chapter 9) in Antibiotic in Laboratory Medicine, Lorian Ed. 1996 as well as Bonapace et al. Diagnostic Microbiology and Infectious Diseases 2002; 44:363-366 and Bonapace et al. Diagnostic Microbiology and Infectious Diseases 2000; 38:43-50. In brief, checkerboard assays were performed in 96 well microtitre trays using an 8-by-8 well configuration. […] 96-well custom designed microtitre plates contained 100 ul/well of cation adjusted Mueller-Hinton broth (eg. for Enterobacteriaceae) with or without lysed horse blood (2-5% V/V) [eg. for S. pneumoniae] and were inoculated to achieve a final concentration of approximately 5×10^5 CFU/ml and incubated in ambient air for 24 hours prior to reading. Colony counts were performed periodically to confirm inocula. Quality control was performed every two weeks using a variety of ATCC QC organisms including; S. pneumoniae 49619, S. aureus 29213, E. faecalis 29212, E. coli 25922 and P. aeruginosa 27853. For all antimicrobials as well as PEP35, CLSI criteria was used.
as §8
(§11) The FIC of drug A and drug B is calculated as follows, FIC drug A=MIC of drug A in combination/MIC of drug A alone and FIC of drug B=MIC of drug B in combination/MIC of drug B alone. Synergy is defined as FIC index ≦0.5, additivity/indifference FIC >0.5-4 and antagonism FIC index >4.
(§12) Antimicrobials used included PEP35, cefazolin, ceftriaxone, vancomycin, linezolid, tigecycline and daptomycin versus Gram-positive cocci and PEP35, gentamicin, levofloxacin, piperacillin/tazobactam, meropenem and colistin (Polymyxin E) versus Gram-negative bacilli. These agents were obtained as laboratory grade powders from their respective manufacturers. Stock solutions were prepared and dilutions made as described by the Clinical Laboratory Standards Institute (2005 CLSI).
(§13) Organisms included Gram-positive cocci (2 strains of each): Methicillin-susceptible Staphylococcus aureus (MSSA), community-associated (CA) and healthcare-associated (HA) methicillin-resistant Staphylococcus aureus (MRSA), vancomycin-intermediate Staphylococcus aureus (VISA), vancomycin-resistant Staphylococcus aureus (VRSA), methicillin-resistant Staphylococcus epidermidis (MRSE), Streptococcus pyogenes, Streptococcus agalactiae, Streptococcus pneumoniae, Enterococcus faecalis, Enterococcus faecium and vancomycin-resistant enterococcus (VRE). Gram-negative bacilli tested (2 strains of each) included: E. coli, Pseudomonas aeruginosa, Klebsiella pneumoniae, K. oxytoca, Enterobacter cloacae, P. mirabilis and Stenotrophomonas maltophilia. MIC testing, following two subcultures from frozen stock were determined by the CLSI 2005 approved broth microdilution method.

A further assay relates to K. pneumoniae. Put plainly: Checkerboard assay (FIC index). It counts as cell-based, Klebsiella pneumoniae. The settings on record: antibiotic combined with PEP35. As for the experimental part:
as §10, §8, §11, §12, §13

Assay [4] deals with E. coli. The experiment in a line: Checkerboard assay (FIC index). It counts as cell-based, Escherichia coli. Particulars: antibiotic combined with PEP35. The procedure: as §6, §7, §8, §9, §10, §11, §12
Organisms included Gram-positive cocci (2 strains of each): Methicillin-susceptible Staphylococcus aureus (MSSA), community-associated (CA) and healthcare-associated (HA) methicillin-resistant Staphylococcus aureus (MRSA), vancomycin-intermediate Staphylococcus aureus (VISA), vancomycin-resistant Staphylococcus aureus (VRSA), methicillin-resistant Staphylococcus epidermidis (MRSE), Streptococcus pyogenes, Streptococcus agalactiae, Streptococcus pneumoniae, Enterococcus faecalis, Enterococcus faecium and vancomycin-resistant enterococcus (VRE). […]

The next assay concerns K. oxytoca. Put plainly: Checkerboard assay (FIC index). It counts as cell-based, Klebsiella oxytoca. Particulars: antibiotic combined with PEP35. As for the experimental part: as §10, §8, §11, §12, §13
The test system of another assay is S. maltophilia. Put plainly: Checkerboard assay (FIC index). It counts as cell-based, Stenotrophomonas maltophilia. Particulars: antibiotic combined with PEP35. The procedure: as §10, §8, §11, §12, §13
The next assay concerns P. mirabilis. The experiment in a line: Checkerboard assay (FIC index). The class given is cell-based, Proteus mirabilis. Particulars: antibiotic combined with PEP35. The procedure: as §10, §8, §11, §12, §13
For a further assay, the system named is P. aeruginosa. The experiment in a line: Checkerboard assay (FIC index). The class given is cell-based, Pseudomonas aeruginosa. Particulars: antibiotic combined with PEP35. The procedure: as §10, §8, §11, §12, §13

Where “and” joins values, the source holds several entries; their conditions need not be identical. Identical values can stand only once. Entries after “also recorded” stand apart in the source; their conditions may differ. Marks after values point to notes of the source that are not given here. Where only a bound is given, the exact number is not on record here.

As for “GAHWQFNALTVRGGGS (Laboratory designed HA inhibitor peptide) [PEP-52]”, the MIC is > 512 and 1024 in the assay with CA-MRSA (CA-MRSA 69615 (USA400)); > 512 and 1024 with CA-MRSA (CA-MRSA 70857 (USA400)); > 512 and > 1024 with HA-MRSA (HA-MRSA 70798 (USA100/800)); > 512 and 1024 in the assay on HA-MRSA (HA-MRSA 77090 (USA100/800), in µg/mL); > 512 and 1024 in the assay on VISA (VISA 92, in µg/mL); > 512 and 1024 in the assay with VISA (VISA 95, in µg/mL). Also, the MIC is > 512 and 1024 in the assay on VISA (VISA 96, in µg/mL); > 512 and > 1024 with VRSA (VRSA 105); > 512 and > 1024 in the assay on VRSA (VRSA 106); > 512 and > 1024 in the assay on E. coli [2]. In addition, the “activity (in words)” value in assay [1] is on record as “no activity; also recorded: not active”. The “synergistic activity (in words)” value in [3] was “no synergistic activity”.
With gentamicin, the “Avg ΣFIC (range)” value in the assay with E. cloacae (E. cloacae 80194) is 1.4 (0.5-2.12); with E. cloacae (E. cloacae 83128) it was 1.05 (0.75-1.25); in the assay with K. pneumoniae (K. pneumoniae 70508) it was 1.13 (1.0-1.25); in the assay with K. pneumoniae (K. pneumoniae 77081) it was 0.89 (0.56-1.25); in the assay on E. coli [4] (E. coli 69716) it was 1.4 (1.06-2.12); in the assay on E. coli [4] (E. coli 70752) it was 1.05 (0.75-1.25). Moreover, the “Avg ΣFIC (range)” value in the assay on K. oxytoca (K. oxytoca 75316) is 1.24 (0.75-2.12); in the assay with K. oxytoca (K. oxytoca 76874), 1.10 (0.75-2.06); in the assay on S. maltophilia (S. maltophilia 73062), 1.4 (0.62-2.25); with S. maltophilia (S. maltophilia 77424), 1.99 (1.0-4.25) and 1.98 (1.06-4.25); with P. mirabilis (P. mirabilis 80267) it was >1*; with P. mirabilis (P. mirabilis 81569), >1*. For the same compound, the “Avg ΣFIC (range)” value is on record as 1.11 (1.03-1.25) with P. aeruginosa (P. aeruginosa 70849) and 1.05 (0.75-1.25) in the assay with P. aeruginosa (P. aeruginosa 71841).
Consider `C[C@H]1COc2c(N3CCN(C)CC3)c(F)cc3c(=O)c(C(=O)O)cn1c23` [Levofloxacin, levofloxacin], for which the “Avg ΣFIC (range)” value in the assay with E. cloacae (E. cloacae 80194) is reported as 1.13 (1.0-1.25); in the assay on E. cloacae (E. cloacae 83128), 0.98 (0.75-1.12); with K. pneumoniae (K. pneumoniae 70508), 0.97 (0.75-1.12); in the assay on K. pneumoniae (K. pneumoniae 77081), 1.14 (1.06-1.25); in the assay on E. coli [4] (E. coli 69716), 0.93 (0.56-1.12); with E. coli [4] (E. coli 70752) it was 1.13 (0.75-1.12). In addition, the “Avg ΣFIC (range)” value was 0.88 (0.53-1.25) in the assay on K. oxytoca (K. oxytoca 75316); 0.94 (0.62-1.12) with K. oxytoca (K. oxytoca 76874); 1.21 (1.03-1.5) in the assay with S. maltophilia (S. maltophilia 73062); 0.94 (0.62-1.12) with S. maltophilia (S. maltophilia 77424); >1* with P. mirabilis (P. mirabilis 80267); >1* in the assay with P. mirabilis (P. mirabilis 81569). Further, the figures for the “Avg ΣFIC (range)” value in the assay on P. aeruginosa (P. aeruginosa 70849) and in the assay on P. aeruginosa (P. aeruginosa 71841) were 1.21 (1.03-1.5) and 1.13 (1.0-1.25), respectively.
